For experiment [1], the target named is T1, binding of KRAS^G12C to SOS1 (Homo sapiens, UniProt Q07889).
T1 construct: Tag1 (unspecified)
T1 sequence (Q07889 1-1333): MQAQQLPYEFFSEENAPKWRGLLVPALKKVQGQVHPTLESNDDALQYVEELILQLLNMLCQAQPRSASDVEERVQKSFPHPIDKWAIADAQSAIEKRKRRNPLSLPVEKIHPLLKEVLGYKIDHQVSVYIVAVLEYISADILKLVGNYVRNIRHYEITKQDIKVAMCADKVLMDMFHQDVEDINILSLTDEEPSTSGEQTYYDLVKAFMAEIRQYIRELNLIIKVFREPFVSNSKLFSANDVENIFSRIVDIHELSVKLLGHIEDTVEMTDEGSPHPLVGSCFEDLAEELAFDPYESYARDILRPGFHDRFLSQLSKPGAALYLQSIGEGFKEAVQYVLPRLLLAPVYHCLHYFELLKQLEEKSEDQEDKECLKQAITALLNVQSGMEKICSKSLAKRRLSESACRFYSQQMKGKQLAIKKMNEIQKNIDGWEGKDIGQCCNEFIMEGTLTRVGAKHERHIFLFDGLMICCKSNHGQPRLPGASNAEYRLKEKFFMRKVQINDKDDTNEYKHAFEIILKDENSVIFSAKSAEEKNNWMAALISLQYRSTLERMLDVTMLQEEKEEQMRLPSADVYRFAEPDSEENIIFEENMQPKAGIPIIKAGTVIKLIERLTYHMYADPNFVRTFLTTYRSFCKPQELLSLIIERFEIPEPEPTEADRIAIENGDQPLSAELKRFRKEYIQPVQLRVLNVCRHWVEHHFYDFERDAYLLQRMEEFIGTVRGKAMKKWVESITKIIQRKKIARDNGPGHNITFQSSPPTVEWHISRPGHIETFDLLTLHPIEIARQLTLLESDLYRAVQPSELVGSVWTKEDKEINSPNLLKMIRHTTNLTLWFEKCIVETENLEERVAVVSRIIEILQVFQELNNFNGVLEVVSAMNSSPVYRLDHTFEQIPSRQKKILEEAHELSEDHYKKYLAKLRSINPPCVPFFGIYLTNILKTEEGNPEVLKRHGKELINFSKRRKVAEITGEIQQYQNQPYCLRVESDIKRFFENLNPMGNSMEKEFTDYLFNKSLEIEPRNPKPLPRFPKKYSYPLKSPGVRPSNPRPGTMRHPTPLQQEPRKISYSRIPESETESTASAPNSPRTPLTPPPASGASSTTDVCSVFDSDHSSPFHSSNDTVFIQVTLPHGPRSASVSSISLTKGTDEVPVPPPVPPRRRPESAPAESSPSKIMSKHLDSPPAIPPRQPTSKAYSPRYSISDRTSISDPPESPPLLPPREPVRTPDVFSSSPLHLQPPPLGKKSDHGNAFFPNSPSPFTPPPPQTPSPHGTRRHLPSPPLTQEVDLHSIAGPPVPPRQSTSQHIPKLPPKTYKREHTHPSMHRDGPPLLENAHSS
Nature of the experiment: Inhibition of the binding of KRAS^G12C to SOS1. The note with it: Tag1-SOS1 / Tag2-KRAS^G12C, 2 h incubation at room temperature; read-out: IC50 (nM), inhibitory activity on the binding of KRAS^G12C to SOS1. An outline of the steps:
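Tag1-SOS1 and Tag2-KRAS^G12C mixed with serially diluted compound (final 0.25% DMSO), then anti-Tag1-Tb3+ and anti-Tag2-XL665 added for 2 h at room temperature. IC50 from curve fit of the TR-FRET signal.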

The subject of experiment [2] is H358 cells. Nature of the experiment: Inhibition of H358 cell proliferation (CellTiter-Glo 3D, 7 days). It is filed as cell-based. The note with it: Homo sapiens, 168 h, NCI-H358, 7 days, read-out: IC50 (nM), inhibitory activity on H358 cell proliferation. The method, then:
• (a) The cells were thawed in T75 cell culture flasks:
• (b) When 80-90% cell confluence was achieved, the cells were passaged.
The diluted test compounds were added to a 384-well cell culture plate using a nanoliter pipetting system, and duplicate wells were set. An equal volume of medium was added to the positive control group; an equal volume of DMSO was added to the negative control group. The plate was centrifuged at 1000 rpm at room temperature for 1 min.
The cells were inoculated into a) 384-well culture plate, an equal volume of cells was added to the negative control group, and only an equal volume of medium was added to the positive control group. The plate was centrifuged at 1000 rpm at room temperature for 1 min. The final concentration of DMSO in the final compounds was 0.5%. The plate was incubated in a thermostatic incubator at 37° C. with 5% CO2 for 7 days.
CellTiter-Glo® 3D was added to b) 384-well cell culture plate at 20 μL/well. The plate was shaken at 320 rpm in the dark for 20 min, and incubated at room temperature in the dark for 2 h. The luminescence values were read using an Envision multi-mode microplate reader.
The inhibition rates of the compounds at different concentrations were calculated in Excel, and then inhibition curves were plotted and relevant parameters including minimum inhibition rate, maximum inhibition rate and IC50 were calculated using GraphPad Prism software.
(In general: In ATP-based viability assays light output follows the ATP content of the culture.)

Take `COc1cc2nc(C)nc(N[C@H](C)c3cc(N)cc(C(F)(F)F)c3)c2cc1OCCOC1COC1` [Example 44, (R)—N-(1-(3-Amino-5-(trifluoromethyl)phenyl)ethyl)-7-methoxy-2-methyl-6-(2-(oxetan-3-yloxy)ethoxy)quinazolin-4-amine]: the IC50 came out at 4.4 nM in experiment [1] and 25 nM in experiment [2]. In the same order, the values of `COCCOc1cc2c(N[C@H](C)c3cc(N)cc(C(F)(F)C(C)(C)O)c3)nc(C)nc2cc1OC` [Example 74] are 3.1 nM and 6.5 nM. The matching figures for `COCCOc1cc2c(N[C@H](C)c3cc(C(F)(F)C(C)(C)O)ccc3F)nc(C)nc2cc1OC` [Example 79, (R)-1,1-Difluoro-1-(4-fluoro-3-(1-((7-methoxy-6-(2-methoxyethoxy)-2-methylquinazolin-4-yl)amino)ethyl)phenyl)-2-methylpropan-2-ol]: 19 nM and 419 nM. As for `COCCOc1cc2c(N[C@H](C)c3cc(F)cc(C(F)(F)C(C)(C)O)c3)nc(C)nc2cc1OC` [Example 80, (R)-1,1-Difluoro-1-(3-fluoro-5-(1-((7-methoxy-6-(2-methoxyethoxy)-2-methylquinazolin-4-yl)amino)ethyl)phenyl)-2-methylpropan-2-ol], the IC50 in experiment [1] was 6.2 nM; in experiment [2], 53 nM. In the same order, the values of `COc1cc2nc(C)nc(N[C@H](C)c3cc(N)cc(C(F)(F)F)c3)c2cc1OCCOC1CC1(F)F` (stereo partly drawn) [Example 82, N—((R)-1-(3-Amino-5-(trifluoromethyl)phenyl)ethyl)-6-(2-(2,2-difluorocyclopropyloxy)ethoxy)-7-methoxy-2-methylquinazolin-4-amine] are 4.5 nM and 33 nM. The matching figures for `COCCOc1cc2c(N[C@H](C)c3cc(N)cc(OC(F)(F)F)c3)nc(C)nc2cc1OC` [Example 83, (R)—N-(1-(3-Amino-5-(trifluoromethoxy)phenyl)ethyl)-7-methoxy-6-(2-methoxyethoxy)-2-methylquinazolin-4-amine]: 15 nM and 187 nM. The matching figures for `COCCOc1cc2c(N[C@H](C)c3cccc(C(F)(F)CO)c3)nc(C)nc2cc1OC` [Example 85]: 4.1 nM and 39 nM. As for `COCCOc1cc2nc(C)nc(N[C@H](C)c3cccc(C(F)(F)C(C)(C)O)c3F)c2cc1OCCOC` [Example 86, (R)-1-(3-(1-((6,7-Bis(2-methoxyethoxy)-2-methylquinazolin-4-yl)amino)ethyl)-2-fluorophenyl)-1,1-difluoro-2-methylpropan-2-ol], the IC50 in experiment [1] came out at 4.4 nM; in experiment [2] it was 11.8 nM. For the molecule `COCCOc1cc2c(N[C@H](C)c3cccc(C(F)(F)C(C)(C)O)c3F)nc(C)nc2cc1C#N` [Example 89, (R)-4-((1-(3-(1,1-Difluoro-2-hydroxy-2-methylpropyl)-2-fluorophenyl)ethyl)amino)-6-(2-methoxyethoxy)-2-methylquinazoline-7-carbonitrile], the IC50 in experiment [1] amounted to 6.7 nM; in experiment [2], 130 nM.

With `COc1cc2nc(C)nc(N[C@H](C)c3cc(N)cc(C(F)(F)C(C)(C)O)c3)c2cc1OCCOC1CC1` [Example 116, (R)-1-(3-Amino-5-(1-((6-(2-cyclopropoxyethoxy)-7-methoxy-2-methylquinazolin-4-yl)amino)ethyl)phenyl)-1,1-difluoro-2-methylpropyl-2-ol], the IC50 in experiment [2] turned out to be 4.29 nM. The same measure, in the same setting: under `COc1cc2nc(C)nc(N[C@H](C)c3cc(N)cc(C(F)(F)C(C)(C)O)c3)c2cc1OCCOC1COC1` [Example 117, (R)-1-(3-Amino-5-(1-((7-methoxy-2-methyl-6-(2-(oxetan-3-yloxy)ethoxy)quinazolin-4-yl)amino)ethyl)phenyl)-1,1-difluoro-2-methylpropyl-2-ol] stands 2.65 nM. `COc1cc2nc(C)nc(N[C@H](C)c3cc(N)cc(C(F)(F)C(C)(C)O)c3)c2cc1OCCOC1CC1(F)F` (stereo partly drawn) [Example 118]: the IC50 in experiment [2] amounted to 2.65 nM. Same read-out and setting: under `COCCOCCOc1cc2c(N[C@H](C)c3cc(N)cc(C(F)(F)C(C)(C)O)c3)nc(C)nc2cc1OC` [Example 119, (R)-1-(3-Amino-5-(1-(7-methoxy-6-(2-(2-methoxyethoxy)ethoxy)-2-methylquinazolin-4-yl)amino)ethylphenyl)-1,1-difluoro-2-methylpropan-2-ol] stands 11.5 nM; under `COCC(COC)Oc1cc2c(N[C@H](C)c3cc(N)cc(C(F)(F)C(C)(C)O)c3)nc(C)nc2cc1OC` [Example 122], 15.6 nM; under `COCCOc1cc2c(N[C@H](C)c3cc(N)cc(C(F)(F)C(C)(C)O)c3)nc(C)nc2cc1-c1cc[nH]n1` [Example 123, (R)-1-(3-Amino-5-(1-((6-(2-methoxyethoxy)-2-methyl-7-(1H-pyrazolyl-3-yl)quinazolin-4-yl)amino)ethyl)phenyl)-1,1-difluoro-2-methylpropan-2-ol], 32.8 nM. On the same count and under the same terms, with `C#Cc1cc2nc(C)nc(N[C@H](C)c3cccc(C(F)(F)C(C)(C)O)c3F)c2cc1OCCOC` [Example 153, (R)-1-(3-(1-(7-ethynyl-6-(2-methoxyethoxy)-2-methylquinazoline-4-amino)ethyl)-2-fluorophenyl)-1,1-difluoro-2-methylpropan-2-ol] the figure was 34.7 nM. For `C#Cc1cc2nc(C)nc(N[C@H](C)c3cccc(C(F)(F)C(C)(C)O)c3F)c2cc1OCCOC1COC1` [Example 157, (R)-1-(3-(1-((7-Ethynyl-2-methyl-6-(2-(oxetan-3-yloxy)ethoxy)quinazolin-4-yl)amino)ethyl)-2-fluorophenyl)-1,1-difluoro-2-methylpropan-2-ol], the IC50 in experiment [2] came to 15.8 nM. On the same count and under the same terms, with `C#Cc1cc2nc(C)nc(N[C@H](C)c3cc(N)cc(C(F)(F)C(C)(C)O)c3)c2cc1OCCOC` [Example 163, (R)-1-(3-Amino-5-(1-((7-ethynyl-6-(2-methoxyethoxy)-2-methylquinazolin-4-yl)amino)ethyl)phenyl)-1,1-difluoro-2-methylpropan-2-ol] the figure was 14.5 nM.

The values above are taken from patent US20240336606A1 (Suzhou Zelgen Biopharmaceuticals Co., Ltd., priority 2020, published 2024).
